According to patent US20190016689A1, “NOVEL FLUORINATED QUINAZOLINE DERIVATIVES AS EGFR INHIBITORS” (TRILLIUM THERAPEUTICS INC., priority 2016, published 2019):

How the values were obtained:
[1] = biological target: CYP 1A2 (Homo sapiens, UniProt P05177); experiment: CYP450 inhibition; type: in vitro ADME
Procedure: (§1) Prepare stock solutions of the test compound and positive control compounds described in Table 8 in DMSO at 0, 0.2, 1, 2, 10, 50, 200, 2000 and 10000 μM. Transfer 1 μL of the stock solutions to the Incubation Plate. The final concentrations of test compound or positive control compound are 0, 0.001, 0.005, 0.01, 0.05, 0.25, 1, 10 and 50 μM. All experiments are performed in duplicate.

[2] = biological target: CYP 2C19 (Homo sapiens, UniProt P33261); experiment: CYP450 inhibition; type: in vitro ADME
Chain of CYP 2C19 (P33261 whole entry): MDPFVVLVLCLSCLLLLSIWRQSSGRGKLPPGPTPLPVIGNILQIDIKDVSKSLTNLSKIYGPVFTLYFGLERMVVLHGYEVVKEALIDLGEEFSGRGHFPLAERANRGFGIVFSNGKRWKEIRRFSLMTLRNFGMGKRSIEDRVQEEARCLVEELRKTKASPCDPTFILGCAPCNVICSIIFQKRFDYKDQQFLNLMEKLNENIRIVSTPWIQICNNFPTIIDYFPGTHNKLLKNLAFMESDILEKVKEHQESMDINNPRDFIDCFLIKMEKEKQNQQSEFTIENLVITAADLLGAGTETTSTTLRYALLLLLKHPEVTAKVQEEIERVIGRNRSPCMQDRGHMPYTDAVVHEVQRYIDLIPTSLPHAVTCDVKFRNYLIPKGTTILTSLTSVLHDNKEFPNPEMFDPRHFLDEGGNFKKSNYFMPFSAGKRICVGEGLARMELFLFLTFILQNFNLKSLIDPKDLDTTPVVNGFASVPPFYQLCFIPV
Procedure: as §1

[3] = biological target: CYP 2C9 (Homo sapiens, UniProt P11712); experiment: CYP450 inhibition; type: in vitro ADME
Chain of CYP 2C9 (P11712 whole entry): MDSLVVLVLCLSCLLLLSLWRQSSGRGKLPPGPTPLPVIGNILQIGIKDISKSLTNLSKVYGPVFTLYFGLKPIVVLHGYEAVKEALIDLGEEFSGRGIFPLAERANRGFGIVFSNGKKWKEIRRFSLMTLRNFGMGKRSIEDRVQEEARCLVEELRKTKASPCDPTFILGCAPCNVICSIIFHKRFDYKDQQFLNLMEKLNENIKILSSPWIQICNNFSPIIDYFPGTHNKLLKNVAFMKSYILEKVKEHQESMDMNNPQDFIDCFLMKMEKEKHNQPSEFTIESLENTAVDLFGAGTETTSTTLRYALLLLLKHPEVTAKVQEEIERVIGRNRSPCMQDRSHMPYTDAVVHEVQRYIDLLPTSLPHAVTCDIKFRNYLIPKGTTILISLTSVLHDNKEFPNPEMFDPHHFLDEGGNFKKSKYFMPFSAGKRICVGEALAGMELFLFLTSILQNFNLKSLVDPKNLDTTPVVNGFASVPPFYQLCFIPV
Procedure: as §1

[4] = biological target: CYP 2D6 (Homo sapiens, UniProt P10635); experiment: CYP450 inhibition; type: in vitro ADME
Chain of CYP 2D6 (P10635 whole entry): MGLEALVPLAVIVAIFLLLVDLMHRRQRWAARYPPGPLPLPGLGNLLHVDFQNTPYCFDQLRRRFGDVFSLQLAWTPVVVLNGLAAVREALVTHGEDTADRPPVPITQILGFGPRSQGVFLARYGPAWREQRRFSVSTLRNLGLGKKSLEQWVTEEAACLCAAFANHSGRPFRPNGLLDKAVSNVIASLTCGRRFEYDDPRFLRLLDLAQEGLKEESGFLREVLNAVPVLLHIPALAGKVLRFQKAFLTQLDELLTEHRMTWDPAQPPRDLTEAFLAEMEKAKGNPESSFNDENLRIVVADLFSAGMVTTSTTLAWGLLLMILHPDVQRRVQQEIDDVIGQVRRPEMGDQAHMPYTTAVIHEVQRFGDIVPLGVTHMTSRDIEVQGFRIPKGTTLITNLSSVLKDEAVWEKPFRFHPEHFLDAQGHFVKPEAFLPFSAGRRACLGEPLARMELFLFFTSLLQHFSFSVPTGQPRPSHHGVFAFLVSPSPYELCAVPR
Procedure: as §1

[5] = system: EKVX; experiment: NCI screening panel (SRB); type: cell-based; settings: Homo sapiens, EKVX (NSCLC), 48 h; for CC50: read-out: LC50 (the source's name)
[6] = system: HCC-2998; experiment: NCI screening panel (SRB); type: cell-based; settings: Homo sapiens, HCC-2998 (Colon), 48 h; for CC50: read-out: LC50 (the source's name)
[7] = system: HCT-116; experiment: NCI screening panel (SRB); type: cell-based; settings: Homo sapiens, HCT-116 (Colon), 48 h; for CC50: read-out: LC50 (the source's name)
[8] = system: KM12; experiment: NCI screening panel (SRB); type: cell-based; settings: Homo sapiens, KM12 (Colon), 48 h; for CC50: read-out: LC50 (the source's name)
[9] = system: SF-295; experiment: NCI screening panel (SRB); type: cell-based; settings: Homo sapiens, SF-295 (CNS), 48 h; for CC50: read-out: LC50 (the source's name)
[10] = system: LOXIMVI; experiment: NCI screening panel (SRB); type: cell-based; settings: Homo sapiens, LOX IMVI, LOXIMVI (Melanoma), 48 h; for CC50: read-out: LC50 (the source's name)
[11] = system: UACC-62; experiment: NCI screening panel (SRB); type: cell-based; settings: Homo sapiens; UACC-62 (Melanoma), 48 h
[12] = system: SK-OV-3; experiment: NCI screening panel (SRB); type: cell-based; settings: Homo sapiens, SK-OV-3 (Ovarian), 48 h; for CC50: read-out: LC50 (the source's name)
[13] = system: SN12C; experiment: NCI screening panel (SRB); type: cell-based; settings: Homo sapiens, SN12C (Renal), 48 h; for CC50: read-out: LC50 (the source's name)
[14] = system: DU-145; experiment: NCI screening panel (SRB); type: cell-based; settings: Homo sapiens, DU-145 (Prostate), 48 h; for CC50: read-out: LC50 (the source's name)
[15] = system: HS578T; experiment: NCI screening panel (SRB); type: cell-based; settings: Homo sapiens, Hs-578T, HS578T (Breast), 48 h; for CC50: read-out: LC50 (the source's name)
[16] = biological target: EGFR (L858R) (Homo sapiens, UniProt P00533, L858R); experiment: Kinase assays, selectivity panel (qPCR); settings: read-out: % Control @ 300 nM
Chain of EGFR (L858R) (P00533 25-1210 L858R): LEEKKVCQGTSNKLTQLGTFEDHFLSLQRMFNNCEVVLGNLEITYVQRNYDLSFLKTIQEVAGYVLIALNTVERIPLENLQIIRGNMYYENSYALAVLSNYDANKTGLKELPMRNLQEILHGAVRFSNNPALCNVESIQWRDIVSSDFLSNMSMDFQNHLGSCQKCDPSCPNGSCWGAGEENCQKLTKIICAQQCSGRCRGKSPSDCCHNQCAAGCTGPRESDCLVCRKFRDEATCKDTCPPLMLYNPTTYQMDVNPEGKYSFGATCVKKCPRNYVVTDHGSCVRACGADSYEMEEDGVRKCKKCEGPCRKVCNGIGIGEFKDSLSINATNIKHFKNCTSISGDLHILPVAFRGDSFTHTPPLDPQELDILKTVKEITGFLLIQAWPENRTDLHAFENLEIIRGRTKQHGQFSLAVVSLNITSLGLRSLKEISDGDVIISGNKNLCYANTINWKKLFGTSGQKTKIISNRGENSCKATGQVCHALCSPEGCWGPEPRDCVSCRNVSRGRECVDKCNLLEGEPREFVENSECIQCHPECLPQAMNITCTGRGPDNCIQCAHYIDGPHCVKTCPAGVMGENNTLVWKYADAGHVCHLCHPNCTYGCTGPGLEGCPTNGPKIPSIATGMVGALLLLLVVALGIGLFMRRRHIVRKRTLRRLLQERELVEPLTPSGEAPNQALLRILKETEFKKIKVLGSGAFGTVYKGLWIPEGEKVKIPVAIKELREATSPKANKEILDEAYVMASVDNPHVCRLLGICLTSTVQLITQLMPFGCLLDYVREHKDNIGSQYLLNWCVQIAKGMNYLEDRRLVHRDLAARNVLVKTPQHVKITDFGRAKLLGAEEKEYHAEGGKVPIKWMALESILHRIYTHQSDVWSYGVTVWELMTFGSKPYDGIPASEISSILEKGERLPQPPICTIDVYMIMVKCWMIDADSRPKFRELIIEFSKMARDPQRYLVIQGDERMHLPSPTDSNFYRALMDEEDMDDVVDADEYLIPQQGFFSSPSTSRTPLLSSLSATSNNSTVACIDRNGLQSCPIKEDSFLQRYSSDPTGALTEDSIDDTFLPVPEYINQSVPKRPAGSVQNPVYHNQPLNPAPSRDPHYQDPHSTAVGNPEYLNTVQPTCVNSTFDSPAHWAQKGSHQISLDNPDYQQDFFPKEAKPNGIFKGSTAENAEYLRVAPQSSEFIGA

[17] = biological target: SRC (Homo sapiens, UniProt P12931); experiment: Kinase assays, selectivity panel (qPCR); settings: read-out: % Control @ 300 nM
Chain of SRC (P12931 whole entry, the tested form may be a part): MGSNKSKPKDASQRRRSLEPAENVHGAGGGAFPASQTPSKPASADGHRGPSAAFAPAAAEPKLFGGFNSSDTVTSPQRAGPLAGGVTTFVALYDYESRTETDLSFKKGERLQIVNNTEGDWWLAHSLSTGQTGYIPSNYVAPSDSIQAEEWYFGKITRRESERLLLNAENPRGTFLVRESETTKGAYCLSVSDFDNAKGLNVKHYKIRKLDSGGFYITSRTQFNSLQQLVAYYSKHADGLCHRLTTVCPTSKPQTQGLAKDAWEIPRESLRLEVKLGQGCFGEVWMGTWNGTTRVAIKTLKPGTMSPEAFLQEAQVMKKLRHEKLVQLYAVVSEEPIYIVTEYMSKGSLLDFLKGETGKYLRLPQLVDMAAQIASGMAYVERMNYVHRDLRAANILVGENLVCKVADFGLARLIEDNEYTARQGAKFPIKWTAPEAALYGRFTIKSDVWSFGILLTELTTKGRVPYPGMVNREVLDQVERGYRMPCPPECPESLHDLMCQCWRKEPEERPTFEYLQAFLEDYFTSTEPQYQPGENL

[18] = biological target: T1, EPHA6 (Homo sapiens, UniProt Q9UF33); experiment: Binding to EPHA (kinase competition binding, qPCR); parameters: T7 phage fusion (kinase-tagged phage) or DNA tag for qPCR; made in house; host or cells: E. coli BL21-derived host (T7 phage) or HEK-293; settings: 300 nM, read-out: % Control @ 300 nM
T1 sequence (Q9UF33 23-1036): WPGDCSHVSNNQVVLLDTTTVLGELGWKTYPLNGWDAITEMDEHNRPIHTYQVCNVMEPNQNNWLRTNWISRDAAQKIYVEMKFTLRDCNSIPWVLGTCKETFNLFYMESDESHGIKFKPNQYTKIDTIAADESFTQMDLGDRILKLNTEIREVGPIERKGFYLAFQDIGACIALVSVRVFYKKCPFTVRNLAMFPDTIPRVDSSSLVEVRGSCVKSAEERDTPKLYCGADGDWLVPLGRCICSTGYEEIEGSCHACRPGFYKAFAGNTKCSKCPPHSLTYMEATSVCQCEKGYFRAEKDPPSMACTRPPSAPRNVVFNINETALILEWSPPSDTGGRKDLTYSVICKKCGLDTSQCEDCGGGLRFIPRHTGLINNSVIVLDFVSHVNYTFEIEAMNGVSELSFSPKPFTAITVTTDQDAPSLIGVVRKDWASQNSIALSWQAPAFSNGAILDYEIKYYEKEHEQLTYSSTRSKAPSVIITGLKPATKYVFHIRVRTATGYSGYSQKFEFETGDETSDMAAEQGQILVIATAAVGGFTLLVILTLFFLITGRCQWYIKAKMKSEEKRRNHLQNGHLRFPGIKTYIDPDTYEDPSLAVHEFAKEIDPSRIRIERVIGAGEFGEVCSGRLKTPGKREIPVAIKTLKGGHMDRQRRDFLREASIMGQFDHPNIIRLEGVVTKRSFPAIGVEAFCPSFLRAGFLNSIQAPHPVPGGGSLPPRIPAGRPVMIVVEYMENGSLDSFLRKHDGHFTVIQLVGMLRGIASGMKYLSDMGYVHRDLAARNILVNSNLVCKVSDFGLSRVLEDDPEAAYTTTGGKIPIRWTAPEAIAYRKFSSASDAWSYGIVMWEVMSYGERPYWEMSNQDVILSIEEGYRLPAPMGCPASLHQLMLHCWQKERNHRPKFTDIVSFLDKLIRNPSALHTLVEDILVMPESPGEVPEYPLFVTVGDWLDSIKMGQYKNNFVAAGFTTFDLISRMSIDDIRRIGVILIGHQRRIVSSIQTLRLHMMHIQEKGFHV
Procedure: The lysates were centrifuged and filtered to remove cell debris. […] All reactions were performed in polystyrene 96-well plates in a final volume of 0.135 ml.

Chain of CYP 1A2 (P05177 whole entry): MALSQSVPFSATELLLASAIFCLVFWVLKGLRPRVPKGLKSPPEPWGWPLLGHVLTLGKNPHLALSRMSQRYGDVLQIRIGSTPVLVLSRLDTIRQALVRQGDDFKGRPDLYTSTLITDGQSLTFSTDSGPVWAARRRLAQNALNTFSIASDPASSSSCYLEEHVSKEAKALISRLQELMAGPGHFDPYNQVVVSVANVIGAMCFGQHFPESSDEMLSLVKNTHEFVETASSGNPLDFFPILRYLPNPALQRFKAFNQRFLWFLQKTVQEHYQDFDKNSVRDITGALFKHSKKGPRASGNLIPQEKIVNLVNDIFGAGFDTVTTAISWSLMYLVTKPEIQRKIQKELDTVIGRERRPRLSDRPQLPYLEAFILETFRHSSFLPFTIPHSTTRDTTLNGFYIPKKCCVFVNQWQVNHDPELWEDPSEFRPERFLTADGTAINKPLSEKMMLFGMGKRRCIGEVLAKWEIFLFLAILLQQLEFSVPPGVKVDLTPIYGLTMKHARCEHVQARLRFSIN

| SMILES | IC50 [1] [µM] | IC50 [2] [µM] | IC50 [3] [µM] | IC50 [4] [µM] | GI50 [5] [µM] | CC50 [5] [µM] | GI50 [6] [µM] | CC50 [6] [µM] | GI50 [7] [µM] | CC50 [7] [µM] | GI50 [8] [µM] | CC50 [8] [µM] | GI50 [9] [µM] | CC50 [9] [µM] | GI50 [10] [µM] | CC50 [10] [µM] | GI50 [11] [µM] | LC50 [11] [µM] | GI50 [12] [µM] | CC50 [12] [µM] | further results |
| --- | --- | --- | --- | --- | --- | --- | --- | --- | --- | --- | --- | --- | --- | --- | --- | --- | --- | --- | --- | --- | --- |
| CN(C)C/C=C/C(=O)Nc1cc2c(Nc3ccc(F)c(Cl)c3)ncnc2cc1O[C@H]1CCOC1 [Afatinib, reference compound] | > 50 | 47.8 | 34.7 | 28 | – | – | – | – | – | – | – | – | – | – | – | – | – | – | – | – | – |
| CN(C)C/C=C/C(=O)Nc1cc2c(Nc3cccc(Cl)c3F)ncnc2cc1OCCOC(F)F.O=C(O)/C=C\C(=O)O [Example I-5-MA, (E)-N-[4-(3-chloro-2-fluoro-anilino)-7-[2-(difluoromethoxy)ethoxy]quinazolin-6-yl]-4-(dimethylamino)but-2-enamide dimaleic acid salt] | > 50 | 29.1 | 30 | 25.7 | – | – | – | – | – | – | – | – | – | – | – | – | – | – | – | – | – |
| CN(C)C/C=C/C(=O)Nc1cc2c(Nc3ccc(F)c(Cl)c3F)ncnc2cc1OCCOC(F)F.O=C(O)/C=C\C(=O)O.O=C(O)/C=C\C(=O)O [Example I-9-MA, (E)-N-[4-(3-chloro-2,4-difluoro-anilino)-7-[2-(difluoromethoxy)ethoxy]quinazolin-6-yl]-4-(dimethylamino)but-2-enamide di-maleic acid salt] | – | – | – | – | < 0.01 | 19.6 | 1.14 | 5.67 | 0.483 | 22.4 | 1.88 | 29.2 | 2.05 | 33 | 0.944 | 4.91 | 1.49 | 9.95 | < 0.01 | 27.7 | GI50 [13]: 0.054 µM; CC50 [13]: 28.1 µM; GI50 [14]: 0.14 µM; CC50 [14]: 20.8 µM; GI50 [15]: 1.24 µM; CC50 [15]: > 100 µM; remaining activity at 0.3 µM [16]: 0%; remaining activity at 0.3 µM [17]: 3.5%; remaining binding at 0.3 µM [18]: 3.5% |
| O=C(/C=C/CN1CCCCC1)Nc1cc2c(Nc3ccc(F)c(Cl)c3F)ncnc2cc1OCCOC(F)F.O=C(O)/C=C\C(=O)O.O=C(O)/C=C\C(=O)O [Example I-10-MA, (E)-N-[4-(3-chloro-2,4-difluoro-anilino)-7-[2-(difluoromethoxy)ethoxy]quinazolin-6-yl]-4-(1-piperidyl)but-2-enamide di-maleic acid salt] | – | – | – | – | 0.0347 | 23.9 | 1.8 | 7.85 | 1.54 | 88.9 | 2.67 | 34.3 | 1.91 | 16 | 1.34 | 5.49 | 1.79 | 20.5 | 0.0405 | 36 | GI50 [13]: 0.281 µM; CC50 [13]: 41.2 µM; GI50 [14]: 0.266 µM; CC50 [14]: 37.8 µM; GI50 [15]: 1.41 µM; CC50 [15]: > 100 µM; remaining activity at 0.3 µM [16]: 0.4%; remaining activity at 0.3 µM [17]: 4.8%; remaining binding at 0.3 µM [18]: 3.9% |
